Measurements reported in ChEMBL document CHEMBL6178017, “Intercepting the Downstream of the Estrogen Receptor Signaling Pathway: Discovery of a Potent and Efficient SRC-3 PROTAC Degrader for Overcoming Endocrine Resistance Breast Cancer” (J Med Chem, 2025).
Calls of active or inactive are those of the source. The rule behind the calls is not given here.

What was measured:
[1] = target: T1, Protein cereblon/Nuclear receptor coactivator 3 (Homo sapiens, UniProt Q9Y6Q9+Q96SW2); experiment: PROTAC activity at CRBN/SRC-3 in tamoxifen-resistant human LCC2 cells assessed as degradation of ER-alpha by measuring downregulation of ER-alpha protein level at 10 uM measured after 36 hrs by diaPASEF-based quantitative proteomics analysis; details: Tamoxifen-resistant LCC2 cell
[2] = Hepatic extraction ratio in human liver microsomes in presence of NADPH by LC-MS/MS analysis; type: ADME, Microsome; details: read-out: ERH
[3] = target: T1, Protein cereblon/Nuclear receptor coactivator 3; experiment: PROTAC activity at CRBN/SRC-3 in tamoxifen-resistant human LCC2 cells assessed as induction of SRC-3 degradation at 1 uM preincubated with SI-2 for 2 hrs followed by incubation with compound and measured after 36 hrs by immunoblot analysis; type: cell-based; details: Tamoxifen-resistant LCC2 cell
[4] = target: Protein cereblon/Nuclear receptor coactivator 2 (Homo sapiens) (UniProt Q15596+Q96SW2); experiment: PROTAC activity at CRBN/SRC-2 in human MCF7 cells assessed as induction of SRC-2 degradation at 0.01 to 10 uM measured after 36 hrs by immunoblot analysis; type: cell-based; details: dose 0.01-10 µM
[5] = target: Protein cereblon/Zinc finger protein Helios (Homo sapiens) (UniProt Q96SW2+Q9UKS7); experiment: PROTAC activity at CRBN/IKZF2 in tamoxifen-resistant human LCC2 cells assessed as degradation of IKZF2 at 10 uM measured after 36 hrs by diaPASEF-based quantitative proteomics analysis; details: Tamoxifen-resistant LCC2 cell
[6] = Induction of apoptosis in tamoxifen-resistant human LCC2 cells assessed as early apoptotic cells at 10 uM incubated for 48 hrs by AnnexinV-FITC/PI staining based flow cytometry (reference value: 5.92%); type: functional, Tamoxifen-resistant LCC2 cell
[7] = Induction of apoptosis in tamoxifen-resistant human LCC2 cells assessed as early apoptotic cells at 1 uM incubated for 48 hrs by AnnexinV-FITC/PI staining based flow cytometry (reference value: 5.92%); type: functional, Tamoxifen-resistant LCC2 cell
[8] = Oral bioavailability in Balb/c mouse at 20 mg/kg by LC-MS/MS analysis; type: ADME, organism-based; details: in vivo
[9] = target: Voltage-gated inwardly rectifying potassium channel KCNH2 (Homo sapiens, UniProt Q12809)
[10] = AUC (0 to infinity) in Balb/c mouse at 4 mg/kg, ip by LC-MS/MS analysis; type: ADME, organism-based; details: in vivo
[11] = target: T1, Protein cereblon/Nuclear receptor coactivator 3; experiment: PROTAC activity at CRBN/SRC-3 in tamoxifen-resistant human LCC2 cells assessed as induction of SRC-3 degradation at 1 uM preincubated with autophagy inhibitor, choloroquine for 2 hrs followed by incubation with compound and measured after 36 hrs by immunoblot analysis; type: cell-based; details: Tamoxifen-resistant LCC2 cell
[12] = target: T1, Protein cereblon/Nuclear receptor coactivator 3; experiment: PROTAC activity at CRBN/SRC-3 in human MCF7 cells harboring ER-alpha D538G mutant assessed as downregulation of ER-alpha level at 0.01 to 10 uM measured after 36 hrs by immunoblot analysis; type: cell-based; details: dose 0.01-10 µM
[13] = AUC (0 to t) in Balb/c mouse at 20 mg/kg, po by LC-MS/MS analysis; type: ADME, organism-based; details: in vivo
[14] = target: T1, Protein cereblon/Nuclear receptor coactivator 3; experiment: PROTAC activity at CRBN/SRC-3 in tamoxifen-resistant human LCC2 cells assessed as degradation of SRC-3 at 10 uM measured after 36 hrs by diaPASEF-based quantitative proteomics analysis relative to control; details: Tamoxifen-resistant LCC2 cell
MCF7 [15] = experiment: Antiproliferative activity against human MCF7 cells assessed as inhibition of cell growth by CCK8 assay; type: functional, cell-based
[16] = Toxicity against Balb/c mouse xenografted with tamoxifen-resistant human LCC2 cells assessed as effect on body weight at 10 uM/Kg, ip administered once every 2 days for 23 days; type: organism-based; details: in vivo, 552 h, time 23 day
[17] = Induction of apoptosis in tamoxifen-resistant human LCC2 cells assessed as late apoptotic cells at 10 uM incubated for 48 hrs by AnnexinV-FITC/PI staining based flow cytometry (reference value: 4.83%); type: functional, Tamoxifen-resistant LCC2 cell
[18] = target: T1, Protein cereblon/Nuclear receptor coactivator 3; experiment: PROTAC activity at CRBN/SRC-3 in human MCF-7 cells harboring Y537S mutant assessed as induction of SRC-3 degradation by measuring downregulation of SRC-3 protein level at 0.1 uM measured after 36 hrs by immunoblot analysis; type: cell-based; details: MCF7
[19] = Induction of cell cycle arrest in tamoxifen-resistant human LCC2 cells assessed as accumulation of cells at S phase at 10 uM incubated for 48 hrs by propidium iodide staining based flow cytometry (reference value: 9.72%); type: functional
[20] = target: T1, Protein cereblon/Nuclear receptor coactivator 3; experiment: PROTAC activity at CRBN/SRC-3 in human MCF7 cells assessed as induction of SRC-3 degradation at 1 uM preincubated with proteasome inhibitor, bortezomib for 2 hrs followed by incubation with compound and measured after 36 hrs by immunoblot analysis; type: cell-based
[21] = Toxicity against Balb/c mouse xenografted with tamoxifen-resistant human LCC2 cells assessed as effect on body weight at 3 to 5 uM/Kg, ip administered once every 2 days for 23 days; type: organism-based; details: in vivo, 552 h, dose 3-5 µM/Kg, time 23 day
[22] = Induction of apoptosis in tamoxifen-resistant human LCC2 cells assessed as late apoptotic cells at 5 uM incubated for 48 hrs by AnnexinV-FITC/PI staining based flow cytometry (reference value: 4.83%); type: functional, Tamoxifen-resistant LCC2 cell
[23] = target: T1, Protein cereblon/Nuclear receptor coactivator 3; experiment: PROTAC activity at CRBN/SRC-3 in human MCF7 cells assessed as maximal induction of SRC-3 degradation at 1 uM incubated for 36 hrs by immunoblot analysis; type: cell-based
LNCaP = experiment: Antiproliferative activity against human LNCaP cells assessed as inhibition of cell growth by CCK-8 assay; type: functional, cell-based
MCF7 [24] = experiment: Antiproliferative activity against human MCF7 cells harboring ER-alpha Y537S mutant assessed as inhibition of cell growth by CCK8 assay; type: functional, cell-based
[25] = Induction of cell cycle arrest in tamoxifen-resistant human LCC2 cells assessed as accumulation of cells at G2/M phase at 10 uM incubated for 48 hrs by propidium iodide staining based flow cytometry (reference value: 11.42%); type: functional
MCF7 [26] = experiment: Induction of cell cycle arrest in human MCF7 cells assessed as accumulation of cells at G1 phase at 5 to 20 uM incubated for 48 hrs by propidium iodide staining based flow cytometry; type: functional; details: dose 5-20 µM
[27] = target: T1, Protein cereblon/Nuclear receptor coactivator 3; experiment: PROTAC activity at CRBN/SRC-3 in human MCF7 cells assessed as induction of SRC-3 degradation at 0.1 uM incubated for 36 hrs by immunoblot analysis; type: cell-based
[28] = Cmax in Balb/c mouse at 20 mg/kg, po by LC-MS/MS analysis; type: ADME, organism-based; details: in vivo
Cytochrome P450 3A4 = Cytochrome P450 3A4 (Homo sapiens, UniProt P08684); experiment: Inhibition of CYP3A4(unknown origin) using testosterone as substrate; type: ADME
MCF7 [29] = experiment: Induction of apoptosis in human MCF7 cells assessed as increase in early apoptotic cells at 1 to 20 uM incubated for 48 hrs by AnnexinV-FITC/PI staining based flow cytometry; type: functional, cell-based; details: dose 1-20 µM
[30] = target: T1, Protein cereblon/Nuclear receptor coactivator 3; experiment: PROTAC activity at CRBN/SRC-3 in human MCF7 cells overexpressing EGFR assessed as induction of SRC-3 degradation measured after 36 hrs by immunoblot analysis; type: cell-based; details: dose 0.01-10 µM

T1 sequence (Q96SW2 whole entry partner): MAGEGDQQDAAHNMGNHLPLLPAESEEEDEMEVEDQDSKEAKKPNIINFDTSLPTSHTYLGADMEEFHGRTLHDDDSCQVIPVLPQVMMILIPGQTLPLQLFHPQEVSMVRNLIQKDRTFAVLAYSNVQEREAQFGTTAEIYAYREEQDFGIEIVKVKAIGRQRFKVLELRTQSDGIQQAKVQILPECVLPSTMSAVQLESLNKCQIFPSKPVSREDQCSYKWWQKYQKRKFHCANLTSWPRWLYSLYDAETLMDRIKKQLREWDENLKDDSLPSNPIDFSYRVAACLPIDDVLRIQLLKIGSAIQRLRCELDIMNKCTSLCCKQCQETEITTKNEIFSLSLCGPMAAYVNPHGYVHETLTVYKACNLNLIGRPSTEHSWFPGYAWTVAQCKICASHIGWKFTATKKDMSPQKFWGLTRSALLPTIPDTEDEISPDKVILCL
T1 sequence (Q9Y6Q9 2-1424 limits assumed): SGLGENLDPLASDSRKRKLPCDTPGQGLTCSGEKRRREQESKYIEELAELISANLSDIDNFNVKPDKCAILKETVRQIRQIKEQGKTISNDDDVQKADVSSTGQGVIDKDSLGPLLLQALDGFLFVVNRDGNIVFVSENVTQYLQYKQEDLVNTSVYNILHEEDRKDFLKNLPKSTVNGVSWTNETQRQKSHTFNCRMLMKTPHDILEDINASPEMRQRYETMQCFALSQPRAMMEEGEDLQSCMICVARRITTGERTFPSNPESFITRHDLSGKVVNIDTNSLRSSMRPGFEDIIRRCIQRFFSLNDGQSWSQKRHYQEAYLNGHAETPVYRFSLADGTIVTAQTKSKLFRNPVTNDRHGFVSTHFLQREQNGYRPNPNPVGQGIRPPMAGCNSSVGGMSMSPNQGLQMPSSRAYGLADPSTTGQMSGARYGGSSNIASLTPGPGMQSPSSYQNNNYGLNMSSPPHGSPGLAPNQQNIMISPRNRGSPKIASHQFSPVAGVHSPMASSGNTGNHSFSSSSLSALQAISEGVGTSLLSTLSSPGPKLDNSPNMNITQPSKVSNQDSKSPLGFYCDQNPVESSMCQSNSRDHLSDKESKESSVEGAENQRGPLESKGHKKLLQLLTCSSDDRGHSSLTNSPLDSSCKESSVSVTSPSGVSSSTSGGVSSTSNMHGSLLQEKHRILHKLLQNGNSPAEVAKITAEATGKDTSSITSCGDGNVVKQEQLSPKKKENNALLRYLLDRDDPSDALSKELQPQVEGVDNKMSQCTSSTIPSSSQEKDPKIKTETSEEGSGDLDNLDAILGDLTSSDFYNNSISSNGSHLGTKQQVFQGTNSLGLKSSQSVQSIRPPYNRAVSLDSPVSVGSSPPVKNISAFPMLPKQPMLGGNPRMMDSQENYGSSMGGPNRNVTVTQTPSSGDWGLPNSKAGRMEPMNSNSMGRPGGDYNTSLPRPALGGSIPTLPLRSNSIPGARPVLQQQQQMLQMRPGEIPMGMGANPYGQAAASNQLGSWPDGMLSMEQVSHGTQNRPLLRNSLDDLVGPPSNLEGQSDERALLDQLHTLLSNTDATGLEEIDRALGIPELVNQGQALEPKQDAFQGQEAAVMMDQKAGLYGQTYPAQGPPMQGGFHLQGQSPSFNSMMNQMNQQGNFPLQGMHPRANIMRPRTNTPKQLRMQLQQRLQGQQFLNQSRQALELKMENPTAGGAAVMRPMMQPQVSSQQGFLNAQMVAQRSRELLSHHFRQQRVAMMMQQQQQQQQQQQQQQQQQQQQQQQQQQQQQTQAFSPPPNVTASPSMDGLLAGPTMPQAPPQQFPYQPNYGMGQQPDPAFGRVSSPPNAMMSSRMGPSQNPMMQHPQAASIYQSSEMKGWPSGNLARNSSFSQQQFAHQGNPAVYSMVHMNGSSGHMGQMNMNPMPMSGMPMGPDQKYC
Chain of Protein cereblon/Nuclear receptor coactivator 2 (Homo sapiens) (Q15596 whole entry, looked up): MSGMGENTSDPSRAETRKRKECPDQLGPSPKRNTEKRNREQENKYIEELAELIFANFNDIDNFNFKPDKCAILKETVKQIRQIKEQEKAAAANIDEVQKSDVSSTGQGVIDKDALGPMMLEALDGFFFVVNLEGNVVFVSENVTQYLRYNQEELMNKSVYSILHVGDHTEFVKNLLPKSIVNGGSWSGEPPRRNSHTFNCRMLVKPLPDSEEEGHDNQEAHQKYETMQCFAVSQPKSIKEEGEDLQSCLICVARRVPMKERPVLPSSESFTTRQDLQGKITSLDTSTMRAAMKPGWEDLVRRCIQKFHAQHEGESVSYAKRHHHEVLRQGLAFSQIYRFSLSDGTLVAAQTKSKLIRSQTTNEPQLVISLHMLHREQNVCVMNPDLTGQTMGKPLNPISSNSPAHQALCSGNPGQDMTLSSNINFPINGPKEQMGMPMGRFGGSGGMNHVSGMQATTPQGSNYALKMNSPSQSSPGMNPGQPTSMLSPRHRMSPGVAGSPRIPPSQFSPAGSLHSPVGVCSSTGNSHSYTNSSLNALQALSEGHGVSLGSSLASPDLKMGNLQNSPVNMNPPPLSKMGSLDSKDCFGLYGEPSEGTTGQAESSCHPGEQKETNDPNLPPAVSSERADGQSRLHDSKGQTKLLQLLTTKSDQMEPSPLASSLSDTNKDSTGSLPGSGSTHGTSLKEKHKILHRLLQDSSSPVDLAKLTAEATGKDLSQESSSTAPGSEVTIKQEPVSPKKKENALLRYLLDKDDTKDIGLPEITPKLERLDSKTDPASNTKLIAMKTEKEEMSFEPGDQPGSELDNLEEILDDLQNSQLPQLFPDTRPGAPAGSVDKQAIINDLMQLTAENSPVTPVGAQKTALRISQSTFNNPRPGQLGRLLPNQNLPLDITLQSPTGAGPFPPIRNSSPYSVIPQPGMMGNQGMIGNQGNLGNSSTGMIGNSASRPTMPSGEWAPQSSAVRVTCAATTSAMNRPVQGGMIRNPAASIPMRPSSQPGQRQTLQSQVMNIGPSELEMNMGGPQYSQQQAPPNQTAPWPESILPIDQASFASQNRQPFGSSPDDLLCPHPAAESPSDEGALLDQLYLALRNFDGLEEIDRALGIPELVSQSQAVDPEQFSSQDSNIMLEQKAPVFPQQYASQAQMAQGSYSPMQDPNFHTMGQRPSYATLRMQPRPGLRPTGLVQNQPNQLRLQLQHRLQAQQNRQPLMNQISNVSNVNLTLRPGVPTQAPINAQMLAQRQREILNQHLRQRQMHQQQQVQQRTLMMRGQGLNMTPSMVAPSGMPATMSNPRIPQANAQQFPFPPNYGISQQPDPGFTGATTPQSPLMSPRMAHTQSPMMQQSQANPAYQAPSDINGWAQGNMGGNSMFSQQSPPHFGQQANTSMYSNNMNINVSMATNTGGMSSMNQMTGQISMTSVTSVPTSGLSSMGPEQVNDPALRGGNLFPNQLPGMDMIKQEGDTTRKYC
Chain of Protein cereblon/Nuclear receptor coactivator 2 (Homo sapiens) (Q96SW2 whole entry, looked up): as the sequence (Q96SW2 whole entry partner) above
Chain of Cytochrome P450 3A4 (P08684 whole entry): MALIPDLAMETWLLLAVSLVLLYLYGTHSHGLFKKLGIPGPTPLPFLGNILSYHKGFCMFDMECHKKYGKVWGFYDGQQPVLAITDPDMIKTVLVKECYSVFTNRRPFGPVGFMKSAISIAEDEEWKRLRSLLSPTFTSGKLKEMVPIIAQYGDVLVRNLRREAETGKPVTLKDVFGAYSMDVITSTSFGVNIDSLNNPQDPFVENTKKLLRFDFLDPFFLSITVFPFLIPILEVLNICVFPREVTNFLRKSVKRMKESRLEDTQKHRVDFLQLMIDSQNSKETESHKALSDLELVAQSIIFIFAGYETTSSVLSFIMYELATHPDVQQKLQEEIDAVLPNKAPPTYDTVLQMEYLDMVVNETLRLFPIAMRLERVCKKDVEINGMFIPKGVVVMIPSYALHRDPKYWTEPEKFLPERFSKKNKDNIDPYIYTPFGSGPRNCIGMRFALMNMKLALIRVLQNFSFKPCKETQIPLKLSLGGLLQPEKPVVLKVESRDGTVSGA
Chain of Protein cereblon/Zinc finger protein Helios (Homo sapiens) (Q96SW2 whole entry, looked up): as the sequence (Q96SW2 whole entry partner) above
Chain of Protein cereblon/Zinc finger protein Helios (Homo sapiens) (Q9UKS7 whole entry, looked up): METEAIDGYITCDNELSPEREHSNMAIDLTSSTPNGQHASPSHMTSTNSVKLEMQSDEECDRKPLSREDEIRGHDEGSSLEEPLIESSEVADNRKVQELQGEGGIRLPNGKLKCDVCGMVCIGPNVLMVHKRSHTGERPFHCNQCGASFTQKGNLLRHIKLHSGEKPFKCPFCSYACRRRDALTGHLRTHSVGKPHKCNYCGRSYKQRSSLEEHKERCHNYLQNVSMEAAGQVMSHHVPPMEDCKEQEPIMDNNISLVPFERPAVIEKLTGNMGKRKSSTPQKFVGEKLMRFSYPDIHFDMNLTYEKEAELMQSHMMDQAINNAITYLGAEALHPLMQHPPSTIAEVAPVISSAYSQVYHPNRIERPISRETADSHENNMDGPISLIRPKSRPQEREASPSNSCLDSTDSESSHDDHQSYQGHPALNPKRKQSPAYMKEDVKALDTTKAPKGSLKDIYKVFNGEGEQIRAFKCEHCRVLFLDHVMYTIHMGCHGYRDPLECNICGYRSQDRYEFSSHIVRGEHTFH

## C/C(=N\Nc1nc2ccccc2n1C1CN(C2CCN(c3cccc4c3C(=O)N(C3CCC(=O)NC3=O)C4=O)CC2)C1)c1ccccn1 (configuration not stated)
[1]
  Activity: Active
[2]
  hepatic extraction ratio: 0.902
[3]
  Activity: Active
[4]
  Activity: Active; Minimal Activity Against Src-2 Compared To Src-3 Observed
[5]
  Activity: inactive
[6]
  Activity: 24.23%
[7]
  Activity: 17.04%
[8]
  bioavailability: 1%
[9]
  IC50: 1100 nM
[10]
  AUC(0-inf): 55.2 ng·h/mL
[11]
  Activity: Active
[12]
  Activity: Active
[13]
  AUC(0-t): 47.1 ng·h/mL
[14]
  log2FC: 0.25
MCF7 [15]
  IC50: 10 nM
[16]
  Activity: Non-toxic
[17]
  Activity: 20.48%
[18]
  Activity: Active
[19]
  Activity: 12.41%
[20]
  Activity: inactive
[21]
  Activity: Non-toxic
[22]
  Activity: 24.79%
[23]
  Activity: Active
LNCaP
  IC50: 1430 nM
MCF7 [24]
  IC50: 3 nM
[25]
  Activity: 3.83%
MCF7 [26]
  Activity: Active
[27]
  Activity: Active
[28]
  Cmax: 25.4 ng/mL
Cytochrome P450 3A4
  IC50: 2730 nM
MCF7 [29]
  Activity: Active
[30]
  Activity: Dose-dependent-effect
